The text below walks through data of patent US10351915B2 (Berg LLC, priority 2009, dated 2019).

One series has as its system Bcl-2. The series is described as follows: Western blot of building block components, Bcl-2 expression. Format: cell-based. The procedure:
(§1) Skmel-28 melanoma cells were cultured in DMEM/F12 supplemented with 5% Fetal Bovine Serum (FBS) and 1× final concentration of Antibiotics. The cells were grown to 85% confluency and treated with building block components for 3, 6, 12 and 24 hours. The cells were then pelleted and a Western blot analysis was performed.
(§2) In the Western Blot Analysis, the cells were pelleted in cold PBS, lysed, and the protein levels were quantified using a BCA protein assay. The whole cell lysate was loaded in a 4% loading 12% running Tris-HCl gel. The proteins were then transferred to a nitrocellulose paper then blocked with a 5% milk Tris-buffered solution for 1 hour. The proteins were then exposed to primary antibodies (Bcl-2 and Caspase-3) overnight. The nitrocellulose paper was then exposed to Pico Chemilluminescent for 5 min and the protein expression was recorded. After exposure, actin was quantified using the same method. Using ImageJ the levels of protein expression were quantified. A t-Test was used to analyze for statistical significance.
(In general: In western blotting, separated proteins are transferred to a membrane and probed.)

A further series has as its system Caspase-3. The series is described as follows: Western blot of building block components, Caspase-3 expression. Format: cell-based. On the procedure:
as §1, §2

In the next series the test system is Melanoma cells. Briefly: Cell proliferation assay (cell count). Format: cell-based. The procedure:
The first study examined the effect of combining 4-Hydroxy-Benzoate with Benzoquinone. Cells were incubated for 48 hours, after which a cell count was performed for the live cells. Each test group was compared to the control, and each combination groups were compared to Benzoquinone control. The compounds were statistically analyzed for the addition of Benzoquinone.
Additional studies were performed testing additional molar ratios. For the first test 4-Hydroxybenzoic were tested at concentrations of 500 nM, 1 μM, and 50 μM. These concentrations were tested in combination with 2,3-Dimethoxy-5-methyl-p-benzoquinone (Benzo). The concentration of Benzo tested were 25 μM, 50 μM, and […]. Melanoma cells were grown to 80% confluency and seeded in 6 well plates at a concentration of 40K cells per well. The cells were treated with CoQ10, 4-Hydroxybenzoate, Benzo, and a combination of 4-Hydroxybenzoate/Benzo.
A T-test was performed with p<0.05 as statistically significant.

The test system of another series is pancreatic cancer. Particulars: 5 mg/kg (Group H), after 28 days.
The subject of another series is HDFa cells. Briefly: Extracellular acidification rate (ECAR), SeaHorse XF analyzer. Format: cell-based, human. Particulars: HDFa. From the text:
(SeaHorse Biosciences Inc, North Billerica, Mass.).
In this experiment, the OCR and extracellular acidification rate (ECAR) in normal cells lines were obtained in the presence and absence of CoQ10 to determine baseline values. It was observed that in its native nutrient environment, the basal OCR rates in normal cells lines are different, and are usually a function of the physiological roles of the cells in the body.
Table 127 below describes the ECAR values (mpH/min) in HDFa cells in the presence or absence of CoQ10 under normoxic and hypoxic conditions at 5.5 mM and 22 mM glucose.

[1] abbreviates: concentration not given, 24 hours.
[2] abbreviates: all concentrations and time points tested.

`NC(Cc1ccccc1)C(=O)O` (racemic) [DL-Phenylalanine]: in the series on Bcl-2 (setting [1]), the Bcl-2 expression entry is “statistically significant decrease”. Also, in the series with Caspase-3 (concentration not given, 3 hours), the Caspase-3 expression result was “statistically significant increase”.
Take `O=C(O)c1ccc(O)cc1` [4-Hydroxybenzoate, 4-hydroxy-benzoate]: the “cell number (live cells) vs control” value in the series on Melanoma cells (48 hours) is “significant decrease”. In the series on Melanoma cells (HB 500 nM, 1 μM, 50 μM, p<0.05), the cell proliferation entry is recorded as “significant decrease”.
In the case of `CC(=O)SCCNC(=O)CCNC(=O)[C@H](O)C(C)(C)COP(=O)(O)OP(=O)(O)OC[C@H]1O[C@@H](n2cnc3c(N)ncnc32)[C@H](O)[C@@H]1OP(=O)(O)O` [Acetyl-CoA], the Caspase-3 expression entry in the series with Caspase-3 (setting [2]) is reported as “no significant observed reduction in Bcl-2 or increase in Caspase-3 expression”.
As for `CC(=O)NCC(=O)O` [Acetylglycine], in the series with Bcl-2 (10 μM, 24 hour), the Bcl-2 expression result was “significant decrease”.
For the compound `N[C@H](Cc1ccccc1)C(=O)O` [D-Phenylalanine], in the series on Bcl-2 (10 μM, 6 hours), the Bcl-2 expression entry was “significant reduction”.
For `N[C@H](Cc1ccc(O)cc1)C(=O)O` [D-Tyrosine], the Caspase-3 expression result in the series on Caspase-3 (1 μM, 12 hour) is recorded as “increase”; with Caspase-3 (1 μM, 24 hour), “increase”.
Regarding `COc1cccc2c1C(=O)c1c(O)c3c(c(O)c1C2=O)C[C@@](O)(C(=O)CO)C[C@@H]3O[C@H]1C[C@H](N)[C@H](O)[C@H](C)O1` [Doxorubicin, reference compound], the survival result in the series with pancreatic cancer was “a significant number of the animals in Group H had died”.
As to `C[C@@](O)(CCO)CC(=O)O` [Mevalonic Acid, mevalonic acid], in the series with Caspase-3 (setting [2]), the Caspase-3 expression result is reported as “no significant reduction in Bcl-2 expression or an increase in Caspase-3 expression”.
Regarding `Cc1ncc(CO)c(CO)c1O` [Pyridoxine, pyridoxine], in the series on Bcl-2 (setting [1]), the Bcl-2 expression result is on record as “significant reduction”.
Take `COc1cc(C(O)C(=O)O)ccc1O` (stereo not shown) [VMA, 3-methoxy-4-hydroxymandelate]: the apoptotic effect result with Bcl-2 (100 nM to 100 μM) is given as “no statistically significant apoptotic effect”.
In the case of `COc1cc(C(=O)O)ccc1O` [Vanillic Acid, vanillic acid], in the series on Bcl-2 (500 nM, 24 hour), the Bcl-2 expression result was “significantly reduce”.
Take `COC1=C(OC)C(=O)C(C/C=C(\C)CC/C=C(\C)CC/C=C(\C)CC/C=C(\C)CC/C=C(\C)CC/C=C(\C)CC/C=C(\C)CC/C=C(\C)CC/C=C(\C)CCC=C(C)C)=C(C)C1=O` [compound 31510]: the ECAR in the series on HDFa cells (Hypoxia (5.5 mM) glucose, 50 μM) amounted to 5 mpH/min; in the series on HDFa cells (Hypoxia (5.5 mM) glucose, 100 μM), 5 mpH/min; in the series on HDFa cells (Hypoxia (22 mM) glucose, 50 μM), 6 mpH/min; with HDFa cells (Hypoxia (22 mM) glucose, 100 μM), 8 mpH/min; with HDFa cells (Normoxia (5.5 mM) glucose, 50 μM), 6 mpH/min; in the series with HDFa cells (Normoxia (5.5 mM) glucose, 100 μM), 6 mpH/min. In addition, the ECAR is 5 mpH/min with HDFa cells (Normoxia (22 mM) glucose, 50 μM) and 5 mpH/min in the series with HDFa cells (Normoxia (22 mM) glucose, 100 μM).
